Results reported in ChEMBL document CHEMBL1201862, “PubChem BioAssay data set” (2004).
Activity calls are given as the source filed them.

Tests used:
[1] = biological target: Peroxisome proliferator-activated receptor gamma/Nuclear receptor coactivator 2 (Homo sapiens, UniProt P37231); assay type: functional;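 also: agonist potency for raising coactivator recruitment to the receptor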
[2] = biological target: Peroxisome proliferator-activated receptor gamma/Nuclear receptor coactivator 1 (Homo sapiens, UniProt P37231); assay type: functional;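 also: agonist potency as compounds enhance coactivator SRC-1 recruitment to PPARgamma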
[3] = biological target: Peroxisome proliferator-activated receptor gamma/Nuclear receptor coactivator 3 (Homo sapiens, UniProt P37231); assay type: functional;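 also: agonist potency for raising coactivator recruitment to the receptor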
[4] = mitochondrial function rescue without frataxin homolog – Friedreich's ataxia, plus single-dose screen, dose response (AID 1465); assay type: functional;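 also: yeast depleted of Yfh1p frataxin homolog grown on glycerol needing respiration; WST-1 tetrazolium dye reduction as measure of cellular dehydrogenase metabolic activity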
[5] = biological target: NS3 (Hepatitis C virus, UniProt A3EZJ3); experiment: PubChem AID 2173; set-up: species or system Hepacivirus hominis
[6] = biological target: T1, Protein Tat (Human immunodeficiency virus type 1 group M subtype B (isolate HXB2)(HIV-1), UniProt P04608); assay type: functional;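 also: tat binding to TAR RNA read out by fluorescence polarization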
T1 sequence (P04608 whole entry): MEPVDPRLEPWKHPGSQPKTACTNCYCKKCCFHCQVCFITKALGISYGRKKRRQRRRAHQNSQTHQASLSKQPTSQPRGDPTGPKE

[7] = biological target: Induced myeloid leukemia cell differentiation protein Mcl-1 (Homo sapiens, UniProt Q07820); assay type: functional
[8] = biological target: T2, Aspartyl aminopeptidase (Plasmodium falciparum 3D7, UniProt Q8I2J3)
T2 sequence (Q8I2J3 whole entry): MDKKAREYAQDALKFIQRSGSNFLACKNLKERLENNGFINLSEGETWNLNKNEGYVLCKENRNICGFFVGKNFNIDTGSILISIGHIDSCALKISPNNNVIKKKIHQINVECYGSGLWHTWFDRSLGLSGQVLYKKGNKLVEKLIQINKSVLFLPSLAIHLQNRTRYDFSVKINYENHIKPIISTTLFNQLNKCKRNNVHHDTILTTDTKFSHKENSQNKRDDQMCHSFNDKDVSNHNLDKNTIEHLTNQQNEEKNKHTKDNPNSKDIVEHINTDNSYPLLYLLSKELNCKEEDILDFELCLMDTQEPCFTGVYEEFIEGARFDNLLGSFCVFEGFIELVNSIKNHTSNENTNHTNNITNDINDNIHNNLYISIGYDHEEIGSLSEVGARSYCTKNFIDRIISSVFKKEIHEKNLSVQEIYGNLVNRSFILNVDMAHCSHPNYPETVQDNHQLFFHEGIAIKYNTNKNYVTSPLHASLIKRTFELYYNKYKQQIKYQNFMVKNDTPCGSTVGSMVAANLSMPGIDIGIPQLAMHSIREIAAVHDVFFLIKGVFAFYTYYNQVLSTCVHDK

[9] = biological target: Procathepsin L (Homo sapiens, UniProt P07711)
[10] = biological target: Transitional endoplasmic reticulum ATPase (Homo sapiens, UniProt P55072); experiment: p97 ATPase inhibitors, dose response, biochemical (AID 1534)
[11] = biological target: Transitional endoplasmic reticulum ATPase (Homo sapiens, UniProt P55072, C522A); experiment: C522A mutant p97 ATPase inhibitors, dose response, counter-screen for p97 inhibitor project, biochemical, luminescence (AID 1544)
[12] = biological target: T3, RNA-binding protein pos-1 (Caenorhabditis elegans, UniProt G5EF15); experiment: disruptors of C. elegans POS-1 RNA interaction – biochemical, fluorescence polarization, dose response (AID 1964);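 also: purified POS-1 fused to maltose binding protein made in E. coli; potency of compounds blocking POS-1 binding to fluorescent RNA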
T3 sequence (G5EF15 whole entry): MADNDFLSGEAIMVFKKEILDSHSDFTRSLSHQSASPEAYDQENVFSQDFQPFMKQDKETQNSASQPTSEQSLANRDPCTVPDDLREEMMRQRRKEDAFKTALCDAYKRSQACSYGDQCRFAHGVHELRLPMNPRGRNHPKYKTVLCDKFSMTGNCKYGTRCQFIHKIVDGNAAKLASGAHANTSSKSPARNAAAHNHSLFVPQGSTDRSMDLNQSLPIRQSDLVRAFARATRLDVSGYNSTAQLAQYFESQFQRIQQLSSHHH

[13] = biological target: T4, Mannose-6-phosphate isomerase (Homo sapiens, UniProt P34949); experiment: MPI inhibition at elevated mannose 6-phosphate – biochemical, fluorescence intensity, high mannose 6-phosphate, primary screen (AID 1220)
T4 sequence (P34949 whole entry): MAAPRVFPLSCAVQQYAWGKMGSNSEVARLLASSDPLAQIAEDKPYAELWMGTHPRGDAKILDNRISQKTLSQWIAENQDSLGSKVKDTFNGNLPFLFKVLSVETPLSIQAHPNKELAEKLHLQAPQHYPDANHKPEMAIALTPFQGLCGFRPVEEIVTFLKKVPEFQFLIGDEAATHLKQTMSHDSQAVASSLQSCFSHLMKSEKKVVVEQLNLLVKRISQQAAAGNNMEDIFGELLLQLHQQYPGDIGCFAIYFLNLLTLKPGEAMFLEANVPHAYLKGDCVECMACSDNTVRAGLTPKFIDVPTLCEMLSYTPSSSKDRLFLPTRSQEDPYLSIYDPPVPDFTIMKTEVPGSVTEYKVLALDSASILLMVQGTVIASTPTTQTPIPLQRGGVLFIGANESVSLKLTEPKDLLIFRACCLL

[14] = biological target: T5, SUMO-activating enzyme (Homo sapiens, UniProt Q9UBT2); experiment: blockers of SAE1/SAE2–UBC9 SUMO transfer – biochemical, HTRF, uHTS, primary screen (AID 2006); assay type: protein-complex assay
[15] = Luminescence Cell-Based Dose Retest to Confirm Inhibitors of Cancer Stem Cells. [Related pubchem assays (depositor defined):AID2717, AID2721]; assay type: functional; conditions: Homo sapiens
[16] = biological target: T5, SUMO-activating enzyme; experiment: blockers of UBC9-mediated SUMO conjugation – biochemical, AlphaScreen, SUMOylation inhibitor project, confirmation (AID 2018); assay type: functional
[17] = viability of HCT116 lacking mutant beta-catenin – cell-based, human colon tumor, dose response (AID 1045); assay type: functional;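 also: HCT116 colon tumor cells with beta catenin knocked out; cells exposed to compound for 60 hours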
[18] = viability of PTEN-deleted HCT116 cells – cell-based, HCT116 PTEN knockout, dose response (AID 1047); assay type: functional;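 also: HCT116 colon tumor cells with PTEN knocked out; cells exposed to compound for 60 hours before readout; potency for loss of cell viability measured by luminescence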
[19] = biological target: T4, Mannose-6-phosphate isomerase; experiment: MPI enzyme activity inhibition – biochemical, fluorescence intensity, coupled assay, primary screen (AID 1209)
[20] = test system: Vero; experiment: cells; assay type: functional; conditions: Chlorocebus sabaeus
[21] = test system: H9c2; experiment: cells; assay type: functional, cell-based; conditions: Rattus norvegicus, H9c2, Myocardium;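 also: confirmatory concentration-response retest of ultra-high-throughput screening hits for modulation of myocardial damage; cell death induced by hydrogen peroxide oxidative stress; compound pretreatment for 60 min then peroxide exposure for 2 h; potency is for protecting the cells against peroxide damage rather than for killing them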
[22] = biological target: T6, Zinc finger protein mex-5 (Caenorhabditis elegans, UniProt Q9XUB2); experiment: potency of MEX-5 RNA-binding blockers – biochemical, C. elegans, fluorescence polarization, dose response (AID 1960)
T6 sequence (Q9XUB2 whole entry): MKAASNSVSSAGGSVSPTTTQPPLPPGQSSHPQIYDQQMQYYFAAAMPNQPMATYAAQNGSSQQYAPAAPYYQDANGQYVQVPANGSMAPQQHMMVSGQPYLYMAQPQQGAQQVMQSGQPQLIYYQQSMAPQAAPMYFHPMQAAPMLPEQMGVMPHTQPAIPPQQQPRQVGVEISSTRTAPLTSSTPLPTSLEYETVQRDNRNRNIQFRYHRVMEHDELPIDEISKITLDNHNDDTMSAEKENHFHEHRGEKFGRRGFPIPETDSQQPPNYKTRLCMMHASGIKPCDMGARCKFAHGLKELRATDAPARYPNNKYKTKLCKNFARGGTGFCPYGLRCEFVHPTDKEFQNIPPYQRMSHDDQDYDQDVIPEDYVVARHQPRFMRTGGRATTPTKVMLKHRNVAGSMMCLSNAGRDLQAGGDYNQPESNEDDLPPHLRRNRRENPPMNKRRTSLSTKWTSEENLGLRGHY
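For AC50 in this document: cells exposed to compound for roughly 70 hours or longer before luminescence read.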

T5 sequence (Q9UBE0 whole entry): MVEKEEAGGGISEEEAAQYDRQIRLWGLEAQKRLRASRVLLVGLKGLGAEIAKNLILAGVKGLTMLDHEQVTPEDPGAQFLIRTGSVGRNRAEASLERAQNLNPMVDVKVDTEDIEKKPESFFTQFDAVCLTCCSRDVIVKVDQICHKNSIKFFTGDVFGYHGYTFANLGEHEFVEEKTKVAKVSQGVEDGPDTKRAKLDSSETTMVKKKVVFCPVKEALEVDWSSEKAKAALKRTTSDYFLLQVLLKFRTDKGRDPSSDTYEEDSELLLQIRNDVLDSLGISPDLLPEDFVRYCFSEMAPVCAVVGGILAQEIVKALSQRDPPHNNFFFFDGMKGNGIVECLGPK
T5 sequence (Q9UBT2 whole entry): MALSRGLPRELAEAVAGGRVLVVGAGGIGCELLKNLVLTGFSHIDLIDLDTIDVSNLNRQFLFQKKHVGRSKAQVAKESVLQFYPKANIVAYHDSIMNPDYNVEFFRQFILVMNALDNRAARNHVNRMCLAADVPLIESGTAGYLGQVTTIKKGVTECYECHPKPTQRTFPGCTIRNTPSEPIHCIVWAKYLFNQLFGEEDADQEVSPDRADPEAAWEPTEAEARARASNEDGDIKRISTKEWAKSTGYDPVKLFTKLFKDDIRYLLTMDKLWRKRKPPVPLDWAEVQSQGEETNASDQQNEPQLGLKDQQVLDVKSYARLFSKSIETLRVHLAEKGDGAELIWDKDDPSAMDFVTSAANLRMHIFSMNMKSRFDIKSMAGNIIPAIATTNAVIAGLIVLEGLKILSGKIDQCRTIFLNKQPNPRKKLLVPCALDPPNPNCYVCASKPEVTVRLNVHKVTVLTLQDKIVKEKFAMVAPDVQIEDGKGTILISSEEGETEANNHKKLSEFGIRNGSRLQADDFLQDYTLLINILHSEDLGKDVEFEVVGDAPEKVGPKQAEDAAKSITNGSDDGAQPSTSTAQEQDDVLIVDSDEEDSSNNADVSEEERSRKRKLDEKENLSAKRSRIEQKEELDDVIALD
Sequence of Procathepsin L (P07711 whole entry): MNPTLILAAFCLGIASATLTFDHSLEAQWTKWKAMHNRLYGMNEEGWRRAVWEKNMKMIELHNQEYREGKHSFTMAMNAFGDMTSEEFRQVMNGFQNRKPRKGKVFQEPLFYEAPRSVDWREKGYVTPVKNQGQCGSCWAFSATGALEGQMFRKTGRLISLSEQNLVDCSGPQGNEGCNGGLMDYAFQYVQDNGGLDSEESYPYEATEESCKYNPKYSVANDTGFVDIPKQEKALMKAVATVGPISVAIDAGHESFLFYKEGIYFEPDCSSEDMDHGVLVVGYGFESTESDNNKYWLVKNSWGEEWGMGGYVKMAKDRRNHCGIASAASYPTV
Sequence of Peroxisome proliferator-activated receptor gamma/Nuclear receptor coactivator 2 (P37231 whole entry): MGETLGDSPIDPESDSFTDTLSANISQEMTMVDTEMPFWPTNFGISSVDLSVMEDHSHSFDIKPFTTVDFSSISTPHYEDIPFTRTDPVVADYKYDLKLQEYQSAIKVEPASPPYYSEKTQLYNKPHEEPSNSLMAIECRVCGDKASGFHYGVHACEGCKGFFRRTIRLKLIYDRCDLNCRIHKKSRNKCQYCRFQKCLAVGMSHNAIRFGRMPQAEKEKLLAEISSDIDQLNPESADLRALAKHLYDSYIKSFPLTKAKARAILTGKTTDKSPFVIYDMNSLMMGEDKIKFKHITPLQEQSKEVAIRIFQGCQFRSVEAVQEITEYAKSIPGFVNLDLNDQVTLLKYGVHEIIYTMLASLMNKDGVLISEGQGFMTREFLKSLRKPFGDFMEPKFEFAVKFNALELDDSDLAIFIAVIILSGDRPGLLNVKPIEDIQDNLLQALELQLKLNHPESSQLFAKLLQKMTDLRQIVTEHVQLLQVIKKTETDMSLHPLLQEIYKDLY
Sequence of Peroxisome proliferator-activated receptor gamma/Nuclear receptor coactivator 2 (Q15596 whole entry, further chain): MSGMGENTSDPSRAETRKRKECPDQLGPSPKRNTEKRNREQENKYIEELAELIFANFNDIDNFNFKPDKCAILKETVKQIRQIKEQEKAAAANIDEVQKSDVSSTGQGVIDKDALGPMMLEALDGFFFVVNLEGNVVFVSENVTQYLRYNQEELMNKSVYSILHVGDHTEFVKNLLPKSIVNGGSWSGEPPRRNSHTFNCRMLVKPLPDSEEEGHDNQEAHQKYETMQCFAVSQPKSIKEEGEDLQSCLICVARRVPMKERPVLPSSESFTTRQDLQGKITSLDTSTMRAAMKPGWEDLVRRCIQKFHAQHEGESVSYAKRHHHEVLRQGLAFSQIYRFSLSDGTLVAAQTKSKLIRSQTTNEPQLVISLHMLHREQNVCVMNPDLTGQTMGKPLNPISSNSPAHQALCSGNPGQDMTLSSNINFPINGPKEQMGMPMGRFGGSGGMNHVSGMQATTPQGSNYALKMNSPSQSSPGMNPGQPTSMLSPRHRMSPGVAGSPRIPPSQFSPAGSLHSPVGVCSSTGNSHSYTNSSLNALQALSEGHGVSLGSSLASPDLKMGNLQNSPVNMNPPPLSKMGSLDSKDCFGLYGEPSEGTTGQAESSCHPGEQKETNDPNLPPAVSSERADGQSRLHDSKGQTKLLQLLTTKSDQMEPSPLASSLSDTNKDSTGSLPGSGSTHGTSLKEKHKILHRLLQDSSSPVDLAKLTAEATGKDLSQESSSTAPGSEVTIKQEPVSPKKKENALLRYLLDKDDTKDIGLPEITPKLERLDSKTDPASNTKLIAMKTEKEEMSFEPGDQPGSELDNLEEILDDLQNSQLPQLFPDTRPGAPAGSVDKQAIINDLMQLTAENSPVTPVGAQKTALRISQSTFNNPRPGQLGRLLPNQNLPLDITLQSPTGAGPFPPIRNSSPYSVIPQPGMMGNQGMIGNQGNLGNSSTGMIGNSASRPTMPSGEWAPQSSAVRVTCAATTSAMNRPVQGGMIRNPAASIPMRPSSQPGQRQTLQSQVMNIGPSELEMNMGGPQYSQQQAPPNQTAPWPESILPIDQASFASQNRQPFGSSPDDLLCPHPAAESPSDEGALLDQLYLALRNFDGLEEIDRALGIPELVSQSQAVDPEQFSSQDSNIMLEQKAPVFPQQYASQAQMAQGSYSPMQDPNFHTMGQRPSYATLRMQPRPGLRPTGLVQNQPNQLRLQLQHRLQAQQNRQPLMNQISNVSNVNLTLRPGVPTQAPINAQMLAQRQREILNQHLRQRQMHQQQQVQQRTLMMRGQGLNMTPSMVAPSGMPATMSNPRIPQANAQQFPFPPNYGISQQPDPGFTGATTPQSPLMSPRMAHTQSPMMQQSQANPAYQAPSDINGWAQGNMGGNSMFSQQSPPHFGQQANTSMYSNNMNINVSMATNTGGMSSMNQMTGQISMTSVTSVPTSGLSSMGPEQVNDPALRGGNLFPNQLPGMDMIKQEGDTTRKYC
Sequence of NS3 (A3EZJ3 whole entry): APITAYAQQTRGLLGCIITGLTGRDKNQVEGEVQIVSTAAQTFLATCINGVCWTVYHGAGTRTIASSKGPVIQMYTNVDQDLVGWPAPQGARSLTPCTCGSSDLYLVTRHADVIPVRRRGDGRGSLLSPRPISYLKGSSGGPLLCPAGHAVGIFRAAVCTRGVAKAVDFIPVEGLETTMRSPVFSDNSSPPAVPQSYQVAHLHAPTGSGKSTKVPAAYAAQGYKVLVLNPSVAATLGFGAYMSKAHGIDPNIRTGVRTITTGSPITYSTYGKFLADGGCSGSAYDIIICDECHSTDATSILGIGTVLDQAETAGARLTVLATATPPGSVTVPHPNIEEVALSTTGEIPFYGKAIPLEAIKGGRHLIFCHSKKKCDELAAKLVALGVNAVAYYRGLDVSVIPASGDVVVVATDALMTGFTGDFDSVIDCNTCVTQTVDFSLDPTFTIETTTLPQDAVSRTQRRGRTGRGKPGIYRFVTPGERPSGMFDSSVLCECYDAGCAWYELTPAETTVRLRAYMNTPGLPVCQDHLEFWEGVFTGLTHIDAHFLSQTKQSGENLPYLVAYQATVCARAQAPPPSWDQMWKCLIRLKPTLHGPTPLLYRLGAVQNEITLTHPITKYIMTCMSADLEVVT
Sequence of Transitional endoplasmic reticulum ATPase (Homo sapiens, UniProt P55072, C522A) (P55072 2-806 C522A limits assumed): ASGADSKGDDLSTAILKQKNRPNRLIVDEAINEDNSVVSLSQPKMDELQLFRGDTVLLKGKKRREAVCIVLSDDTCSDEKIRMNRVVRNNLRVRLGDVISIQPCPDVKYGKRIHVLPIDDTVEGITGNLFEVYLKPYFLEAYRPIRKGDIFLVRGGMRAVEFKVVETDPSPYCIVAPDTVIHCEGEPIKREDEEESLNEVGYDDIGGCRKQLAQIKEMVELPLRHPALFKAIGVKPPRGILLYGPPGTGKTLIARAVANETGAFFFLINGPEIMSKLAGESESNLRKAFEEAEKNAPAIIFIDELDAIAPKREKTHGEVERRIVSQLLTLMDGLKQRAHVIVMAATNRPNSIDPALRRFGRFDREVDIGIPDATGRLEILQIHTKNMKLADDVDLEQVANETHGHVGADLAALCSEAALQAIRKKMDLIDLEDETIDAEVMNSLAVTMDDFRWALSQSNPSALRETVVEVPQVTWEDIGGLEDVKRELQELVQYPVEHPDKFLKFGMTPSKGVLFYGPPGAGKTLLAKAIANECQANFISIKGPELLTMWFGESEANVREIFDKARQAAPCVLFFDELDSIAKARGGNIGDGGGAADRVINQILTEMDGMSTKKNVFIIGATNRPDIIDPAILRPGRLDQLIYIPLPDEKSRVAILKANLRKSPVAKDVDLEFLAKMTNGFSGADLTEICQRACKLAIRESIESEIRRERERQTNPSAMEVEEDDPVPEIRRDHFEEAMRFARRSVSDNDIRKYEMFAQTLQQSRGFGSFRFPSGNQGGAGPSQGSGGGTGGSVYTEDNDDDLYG

CCOC(=O)c1oc2ccc(S(=O)(=O)N3CCC(C)CC3)cc2c1C
EC50 [1]: > 79.4 µM (not active) | EC50 [2]: > 79.4 µM (not active) | EC50 [3]: > 79.4 µM (not active)

Sc1nnc(CSCc2ccc(Cl)cc2Cl)n1-c1ccccc1
EC50 [4]: > 100 µM (active)

O=C(c1ccc2nc(-c3ccco3)c(-c3ccco3)nc2c1)N1CCN(c2ncccn2)CC1
IC50 [5]: 11.5 µM (not active) | IC50 [6]: 7.28 µM (inconclusive) | IC50 [7]: 7.82 µM (active)

Cc1scc(C(=O)Nn2cnnc2)c1-c1ccccc1
IC50 [8]: 3.13 µM (active) | IC50 [9]: > 59.6 µM (not active)

Cc1ccccc1C(=O)Nc1nc2c(C)csc2c(=O)s1
IC50 [10]: > 50 µM (not active) | IC50 [11]: > 50 µM (not active)

CCOC(=O)c1c2ccc(OCC(=O)N/N=C/c3ccc(C)cc3)cc2n2ccccc12
EC50 [12]: > 300 µM (not active) | IC50 [13]: 13.1 µM (active) | IC50 [14]: 7.01 µM (active) | AC50 [15]: 5.11 µM (active) | IC50 [16]: 17.9 µM (active) | EC50 [17]: 6.24 µM (active) | EC50 [18]: 5.25 µM (active) | IC50 [19]: > 50 µM (not active) | CC50 [20]: > 25 µM (active) | IC50 [21]: 40.5 µM (inactive) | EC50 [22]: > 300 µM (not active)
